From US11612595B2, “Compositions and methods for treating rheumatoid arthritis” (Generos Biopharma Ltd., priority 2017, dated 2023)

Key:
STAT5b SH2 domain = target: T1, STAT5b SH2 domain (Homo sapiens, UniProt P51692); conditions: read-out: IC50 against STAT5b SH2 domain EPO peptide binding activity; cited from earlier work
T1 sequence (P51692 1-787): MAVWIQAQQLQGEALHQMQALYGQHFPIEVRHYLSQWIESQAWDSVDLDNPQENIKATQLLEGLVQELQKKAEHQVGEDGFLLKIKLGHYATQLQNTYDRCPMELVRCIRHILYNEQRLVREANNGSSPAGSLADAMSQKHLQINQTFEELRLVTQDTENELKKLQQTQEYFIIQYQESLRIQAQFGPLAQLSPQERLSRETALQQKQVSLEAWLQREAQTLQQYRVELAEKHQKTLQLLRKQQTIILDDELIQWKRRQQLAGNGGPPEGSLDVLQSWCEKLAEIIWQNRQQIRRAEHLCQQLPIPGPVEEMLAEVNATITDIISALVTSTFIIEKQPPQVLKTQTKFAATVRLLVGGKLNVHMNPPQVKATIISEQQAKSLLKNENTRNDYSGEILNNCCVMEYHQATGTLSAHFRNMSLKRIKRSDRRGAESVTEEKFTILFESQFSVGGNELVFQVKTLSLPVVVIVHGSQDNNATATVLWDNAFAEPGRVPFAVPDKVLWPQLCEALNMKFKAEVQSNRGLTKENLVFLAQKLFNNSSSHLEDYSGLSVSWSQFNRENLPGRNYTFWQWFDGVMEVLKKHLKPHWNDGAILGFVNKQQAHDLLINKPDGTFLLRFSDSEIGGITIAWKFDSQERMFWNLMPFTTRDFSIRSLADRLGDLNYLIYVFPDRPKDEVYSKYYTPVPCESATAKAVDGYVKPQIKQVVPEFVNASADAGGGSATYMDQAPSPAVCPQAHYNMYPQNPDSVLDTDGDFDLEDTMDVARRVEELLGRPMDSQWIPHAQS

SH2 domain of STAT1 = target: T2, SH2 domain of STAT1 (Homo sapiens, UniProt P42224); conditions: read-out: IC50 towards the SH2 domain of STAT1; cited from earlier work
T2 sequence (P42224 1-750): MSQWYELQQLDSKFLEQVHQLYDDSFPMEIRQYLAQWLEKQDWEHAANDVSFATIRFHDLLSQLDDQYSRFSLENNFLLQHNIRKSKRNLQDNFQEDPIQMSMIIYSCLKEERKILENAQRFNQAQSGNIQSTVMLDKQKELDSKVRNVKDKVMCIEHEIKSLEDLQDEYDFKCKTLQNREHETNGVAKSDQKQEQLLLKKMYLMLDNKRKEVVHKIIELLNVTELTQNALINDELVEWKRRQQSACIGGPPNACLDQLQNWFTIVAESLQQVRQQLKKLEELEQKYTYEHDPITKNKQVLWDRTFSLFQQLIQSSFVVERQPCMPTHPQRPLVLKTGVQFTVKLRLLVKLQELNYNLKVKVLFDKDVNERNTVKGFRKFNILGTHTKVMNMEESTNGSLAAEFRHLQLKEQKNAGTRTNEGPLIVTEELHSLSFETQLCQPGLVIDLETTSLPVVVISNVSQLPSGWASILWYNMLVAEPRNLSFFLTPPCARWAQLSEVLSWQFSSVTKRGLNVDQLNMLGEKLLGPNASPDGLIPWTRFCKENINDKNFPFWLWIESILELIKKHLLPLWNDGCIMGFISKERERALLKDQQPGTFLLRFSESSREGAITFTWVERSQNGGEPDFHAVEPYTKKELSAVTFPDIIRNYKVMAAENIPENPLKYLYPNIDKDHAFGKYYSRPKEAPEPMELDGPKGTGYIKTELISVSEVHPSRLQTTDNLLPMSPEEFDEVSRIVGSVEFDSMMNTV

[1] = system: adjuvant-induced arthritis (AIA) rat model; assay: AIA rat model, paw volume and clinical scores; type: in vivo, rats
Protocol: FIG. 3 is a graph illustrating the treatment scheme in an adjuvant-induced arthritis (AIA) rat model. In the prophylactic group, treatment starts from day 0 and administered every other day. In the therapeutic group, treatment starts from day 13 and was administered every other day.
Three groups (10 rats in each group) of female rats (age 8 weeks) were subject to AIA model induction and then to different treatment schemes. Specifically, 100 ug mBSA mixed with CFA was injected s.c. to flank near tail, and one dose of B. pertusiss was injected i.p. the next day to boost the immune reaction. The first of the three groups of rats were treated with DMSO (Vehicle). The second of the three groups of rats were treated with pimozide (Sigma-Aldrich) 10 mg/kg of body weight (same unit are used throughout this application) in 30% PEG300 solution via intraperitoneal injection with collagen injection starting from day 7 (Therapeutic). The last of the three groups of rats were treated with pimozide (Sigma-Aldrich) 10 mg/kg in 30% PEG300 solution via intraperitoneal injection either with collagen injection starting from day 0. As a control, a fourth group of female rats (5 rats) were spared the AIA model induction and were not treated. The inventors collected data of the weight, paw volume, and clinical scores every three days and performed statistic analysis.
The clinical scores were derived according to the scheme in Table 1.
The method used in the statistic analysis was Student's t test, unpaired, two-tailed analysis.

[2] = Prophylactic group, 10 mg/kg i.p. from day 0, starting from day 13
[3] = Therapeutic group, 10 mg/kg i.p., starting from day 17

SMILES: O=C(N/N=C/c1coc2ccccc2c1=O)c1cccnc1 [nicotinohydrazide, N′-((4-Oxo-4H-chromen-3-yl)methylene)nicotinohydrazide]
- IC50 (STAT5b SH2 domain): 47 µM
- IC50 (SH2 domain of STAT1): > 500 µM

SMILES: O=c1[nH]c2ccccc2n1C1CCN(CCCC(c2ccc(F)cc2)c2ccc(F)cc2)CC1 [pimozide, 1-[1-[4,4-bis(4-fluorophenyl)butyl]-4-piperidinyl]-1,3-dihydro-2H-benzimidazole-2-one]
- clinical score vs Vehicle group [1, 2]: significantly decreased
- paw volume vs Vehicle group [1, 2]: significantly decreased
- clinical score vs Vehicle group [1, 3]: significantly decreased
- paw volume vs Vehicle group [1, 3]: significantly decreased
